Experimental data published in patent US10544113B2 (priority 2016, dated 2020).
Where two headings read alike, the source gives them in different places.

How the values were obtained:
mu-opioid receptor (MOR) = mu-opioid receptor (MOR) (Homo sapiens (Human), UniProt P35372); assay: cell-based; details: for AUC: AUC of [Ca2+]i fluorescence, CHO-K1/MOR/Gα15 cells
B6 mice = assay: Tail-flick test; type: in vivo, mouse; set-up: key to Activity of tail-flick test: ++: 25 mg/kg (intravenous) or 50 nmol (intrathecal) active; +: 100 mg/kg (intravenous) active; details: mice; compound given intravenous or intrathecal
Procedure: In an exemplary in vivo method, a test compound and a MOR antagonist are injected into a mouse pain model (for example, intravenous but not limited), basal latencies are recorded before the treatment and test latencies are recorded at various specified times after the injection, and a time-response curve is recorded and AUC values are calculated to determine whether an analgesic effect is exerted on the mouse. The test compound is confirmed to be an antagonist-to-agonist allosteric modifier of the MOR upon observation of an analgesic effect.
Male wild-type (WT) B6 mice (25-30 g) were kept in a temperature-controlled animal room with a 12-h light/dark cycle. The protocol has been approved by the Institutional Animal Care and Use Committee of the National Health Research Institutes, Taiwan. Animal experiments were carried out in accordance with the Policies on the Use of Animals in Neuroscience Research and the ethical guidelines for investigations of experimental pain in conscious animals, International Association for the Study of Pain. Tail-Flick Analgesia Meter (Columbia Instruments) was used to measure the tail-flick latencies of mice. The cut-off time for each measurement was 10 s to avoid tissue damage. Basal latencies were recorded before treatment and test latencies were recorded 30, 60, 90, 120 and 180 min after an intravenous injection of drugs. […] ED50 values were determined by the up-and-down method reported in Crocker et al., Pharmacol Biochem Behav, 1984, 21, 133-136.
An in vivo study, i.e., tail-flick test, was performed to investigate whether AAMs could change innate character of μ-opioid receptor in the presence of naloxone. […] In mice injected with naloxone (10 mg/kg; s.c.), the ED50 value of compound 58 in inhibition of the tail-flick response was determined to be 23.1±7.1 nmole.

DOR = assay: cAMP assay (adenylyl cyclase inhibition) in HEK-DOR cells; type: cell-based
Procedure: Human embryonic kidney 293 (HEK-293) cells constitutively expressing MOR (HEK-MOR) and DOR (HEK-DOR) (kindly provided by Dr. Ping-Yee Law, University of Minnesota, USA) were cultured in high-glucose Dulbecco's modified Eagle's medium (DMEM, GIBCO) supplemented with 400 μg/mL G418 (Sigma), 2 mM L-glutamine and P/S/F (100 units/mL penicillin, 100 μg/mL streptomycin, 10% fetal bovine serum). Chinese hamster ovary (CHO)-K1 cells, stably expressing hMOR and Gα15 (CHO-K1/MOR/Gα15), were cultured in F12 medium (GIBCO) supplemented with 10 μg/mL Hygromycin B (Invivogen), 20 μg/mL Zeocin (Invivogen) P/S/F (100 units/mL penicillin, 100 μg/mL streptomycin, 10% fetal bovine serum). The cultures were incubated at 37° C. in a humidified 5% CO2 incubator.
Briefly, 2000 HEK-MOR cells or HEK-DOR cells were plated in 10 μL/well of DMEM in 96-well solid bottom white plates and 10 μL/well compound in HBSS in the presence with 1 μM forskolin and 100 μM 3-isobutyl-1-methylxanthine (IBMX). After 30 minutes of incubation at room temperature, 10 μL/well of labeled d2-cAMP and 10 μL/well of anti-cAMP antibody (both diluted in lysis buffer) were added to each well. Two hours later, plates were measured using the FlexStationIII (Molecular Devices Corp.) with excitation at 330 nm and emissions of 620 nm and 665 nm.
To characterize of novel opioid receptor AAMs, the activity and selectivity of compound 58 were tested by inhibiting adenylyl cyclase activity (i.e., cAMP assay).
Opoid receptors inhibit adenylyl cyclase activity through Gi/o family of heterotrimeric G proteins. A cAMP-accumulation assay was performed to determine whether opioid receptor AAMs affect a G protein-dependent signaling pathway.

[1] = EC50, CHO-K1/MOR/Gα15 cells, combined with a MOR antagonist
[2] = combined with a MOR antagonist, read-out: FLIPR Ca^2+ EC50
[3] = FLIPR Ca^2+ EC50, combined with a MOR antagonist

mu-opioid receptor (MOR), sequence (P35372 whole entry): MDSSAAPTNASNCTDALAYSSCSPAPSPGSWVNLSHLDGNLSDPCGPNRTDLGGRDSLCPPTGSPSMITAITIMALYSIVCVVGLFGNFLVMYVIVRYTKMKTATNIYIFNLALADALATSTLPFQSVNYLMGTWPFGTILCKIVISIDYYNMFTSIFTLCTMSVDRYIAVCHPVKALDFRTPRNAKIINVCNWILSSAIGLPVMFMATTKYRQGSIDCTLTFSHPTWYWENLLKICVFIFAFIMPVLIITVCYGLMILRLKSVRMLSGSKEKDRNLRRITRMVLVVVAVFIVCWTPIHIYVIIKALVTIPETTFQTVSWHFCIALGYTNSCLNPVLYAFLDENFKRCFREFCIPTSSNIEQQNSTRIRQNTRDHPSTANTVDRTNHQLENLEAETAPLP

| Compound | AUC (mu-opioid receptor (MOR); combined with a MOR antagonist) | EC50 (mu-opioid receptor (MOR); [1]) | FLIPR Ca^2+ AUC (mu-opioid receptor (MOR); combined with a MOR antagonist) | EC50 (mu-opioid receptor (MOR); [2]) | EC50 (mu-opioid receptor (MOR); [3]) | Activity of tail-flick test (B6 mice) | cAMP-inhibition response (DOR; % of forskolin-stimulated (1 μM) cAMP accumulation) | EC50 (DOR; agonist alone) |
| --- | --- | --- | --- | --- | --- | --- | --- | --- |
| COc1cc(CNC(=O)c2ccc(N3C(=O)CSC3c3ccc(F)cc3)c(C)c2)cc(OC)c1 (centres unmarked) [Example 380] | more than 5000 | < 10 µM | 10013 | 8.2 µM | – | – | – | – |
| Cc1cc(C(=O)NCc2cc(F)cc(F)c2)ccc1N1C(=O)CSC1c1ccc(F)cc1 (centres unmarked) [Example 381] | more than 5000 | < 10 µM | 6035 | 8.2 µM | – | – | – | – |
| Cc1cc(C(=O)NCCc2ccccc2F)ccc1N1C(=O)CSC1c1ccc(F)cc1 (centres unmarked) [Example 383] | – | – | 5504 | 6.9 µM | – | – | – | – |
| Cc1cc(C(=O)NCCc2cccc(F)c2)ccc1N1C(=O)CSC1c1ccc(F)cc1 (centres unmarked) [Example 385] | – | – | 7501 | 3.9 µM | – | – | – | – |
| Cc1cc(C(=O)NCCc2cccc(Cl)c2)ccc1N1C(=O)CSC1c1ccc(F)cc1 (centres unmarked) [Example 386] | – | – | 5727 | 4.2 µM | – | – | – | – |
| Cc1cc(C(=O)NCCc2ccc(F)cc2)ccc1N1C(=O)CSC1c1ccc(F)cc1 (centres unmarked) [Example 387] | – | – | 5770 | 4 µM | – | – | – | – |
| Cc1cc(C(=O)NCCc2ccc(Cl)cc2)ccc1N1C(=O)CSC1c1ccc(F)cc1 (centres unmarked) [Example 388] | – | – | 2951 | 2 µM | – | – | – | – |
| Cc1cc(C(=O)OCCOCCOC(=O)c2ccc(N3C(=O)CSC3c3ccc(F)cc3)c(C)c2)ccc1N1C(=O)CSC1c1ccc(F)cc1 (centres unmarked) [Example 390] | more than 5000 | – | 7399 | 13.9 µM | – | – | – | – |
| Cc1noc(N2C(=O)CSC2c2ccc(F)cc2)c1C (centres unmarked) [Example 395] | more than 5000 | – | 7107 | 12 µM | – | – | – | – |
| Cc1c(N2C(=O)CSC2c2cccc(F)c2)c(=O)n(-c2ccccc2)n1C (centres unmarked) [Example 404] | more than 5000 | – | 7127 | 21.8 µM | – | – | – | – |
| Cc1c(N2C(=O)CSC2c2ccccc2F)c(=O)n(-c2ccccc2)n1C (centres unmarked) [Example 406] | more than 5000 | – | 9974 | 31.2 µM | – | – | – | – |
| Cc1c(N2C(=O)CSC2c2ccccc2)c(=O)n(-c2ccccc2)n1C (centres unmarked) [Example 408] | more than 5000 | – | 9281 | 12.7 µM | – | – | – | – |
| Cc1c(N2C(=O)CSC2c2ccc(F)cc2)c(=O)n(-c2ccccc2)n1C (centres unmarked) [Example 411] | more than 5000 | – | 8099 | 20 µM | – | – | – | – |
| COC(=O)c1ccc(N2C(=O)CSC2c2ccoc2)c(C)c1 (centres unmarked) [Example 416] | more than 5000 | – | 6514 | 11.7 µM | – | – | – | – |
| [2H]c1c([2H])c(C2SCC(=O)N2c2ccc(C(=O)O)cc2C)c([2H])c([2H])c1F (centres unmarked) [Example 579, 4-{2-[4-Fluoro-2,3,5,6-d4-phenyl]-4-oxo-1,3-thiazolidin-3-yl}-3-methylbenzoic acid] | – | – | 14761 | 1.93 µM | – | – | – | – |
| [2H]c1c([2H])c(C2SCC(=O)N2c2ccc(C(=O)OCC)cc2C)c([2H])c([2H])c1F (centres unmarked) [Example 580, Ethyl 4-{2-[4-fluoro-2,3,5,6-d4-phenyl]-4-oxo-1,3-thiazolidin-3-yl}-3-methylbenzoate] | – | – | 14441 | – | 4.26 µM | – | – | – |
| [2H]C1(c2ccc(F)cc2)SCC(=O)N1c1ccc(C(=O)O)cc1C (centres unmarked) [Example 581, 4-[2-(4-Fluorophenyl)-4-oxo-2-d1-1,3-thiazolidin-3-yl]-3-methylbenzoic acid] | – | – | 13703 | 3.31 µM | – | – | – | – |
| [2H]C1(c2ccc(F)cc2)SCC(=O)N1c1ccc(C(=O)OCC)cc1C (centres unmarked) [Example 583, Ethyl 4-[2-(4-fluorophenyl)-4-oxo-2-d1-1,3-thiazolidin-3-yl]-3-methylbenzoate] | more than 5000 | < 10 µM | 11275 | – | 4.42 µM | – | – | – |
| CCONC(=O)c1ccc(N2C(=O)CSC2c2ccc(F)cc2)c(C)c1 (centres unmarked) [Example 588, N-Ethoxy-4-[2-(4-fluorophenyl)-4-oxo-1,3-thiazolidin-3-yl]-3-methylbenzamide] | more than 5000 | < 10 µM | 9986 | 9.27 µM | – | – | – | – |
| COCCOCCOC(=O)c1ccc(S(=O)(=O)NC(=O)c2ccc(N3C(=O)CSC3c3ccc(F)cc3)c(C)c2)cc1 (centres unmarked) [Example 591, 2-(2-Methoxyethoxy)ethyl 4-({4-[2-(4-fluorophenyl)-4-oxo-1,3-thiazolidin-3-yl]-3-methylbenzoyl}sulfamoyl)benzoate] | more than 5000 | – | 13033 | 10.3 µM | – | – | – | – |
| COCCS(=O)(=O)NC(=O)c1ccc(N2C(=O)CSC2c2ccc(F)cc2)c(C)c1 (centres unmarked) [Example 593, 4-[2-(4-Fluorophenyl)-4-oxo-1,3-thiazolidin-3-yl]-N-[(2-methoxyethyl)sulfonyl]-3-methylbenzamide] | more than 5000 | < 10 µM | 11543 | 2.21 µM | – | – | – | – |
| COCCOCCS(=O)(=O)NC(=O)c1ccc(N2C(=O)CSC2c2ccc(F)cc2)c(C)c1 (centres unmarked) [Example 597, 4-[2-(4-Fluorophenyl)-4-oxo-1,3-thiazolidin-3-yl]-N-{[2-(2-methoxyethoxy)ethyl]sulfonyl}-3-methylbenzamide] | more than 5000 | < 10 µM | 10720 | 1.12 µM | – | – | – | – |
| Cc1cc(C(O)C(F)(F)F)ccc1N1C(=O)CSC1c1ccc(F)cc1 (centres unmarked) [Example 600, 2-(4-Fluorophenyl)-3-[2-methyl-4-(2,2,2-trifluoro-1-hydroxyethyl)phenyl]-1,3-thiazolidin-4-one] | more than 5000 | < 10 µM | 13110 | 6.75 µM | – | – | – | – |
| Cc1cccnc1N1C(=O)CSC1c1ccc(F)cc1 (centres unmarked) [Example 629, 2-(4-Fluorophenyl)-3-(3-methylpyridin-2-yl)-1,3-thiazolidin-4-one] | – | – | 4804 | 10 µM | – | – | – | – |
| CCOC(=O)c1ccc(N2C(=O)CSC2c2ccc(F)cc2)c(C)n1 (centres unmarked) [Example 635, Ethyl 5-[2-(4-fluorophenyl)-4-oxo-1,3-thiazolidin-3-yl]-6-methylpyridine-2-carboxylate] | more than 5000 | – | 9843 | 10.9 µM | – | – | – | – |
| CC(C)(C)c1cc(N2C(=O)CSC2c2ccc(F)cc2)no1 (centres unmarked) [Example 640, 3-(5-tert-Butyl-1,2-oxazol-3-yl)-2-(4-fluorophenyl)-1,3-thiazolidin-4-one] | more than 5000 | – | 9872 | 14.2 µM | – | – | – | – |
| COC(=O)c1ccc(N2C(=O)CSC2c2ccsc2)c(C)c1 (centres unmarked) [Example 648, Methyl 3-methyl-4-[4-oxo-2-(thiophen-3-yl)-1,3-thiazolidin-3-yl]benzoate] | more than 5000 | < 10 µM | 9356 | 2.01 µM | – | – | – | – |
| N-Cyclobutyl-4-[2-(4-fluorophenyl)-4-oxo-1, 3-thiazolidin-3-yl]-3-methylbenzamide [Example 255] | – | – | – | – | – | + | – | – |
| [D-Pen(2),D-Pen(5)]-enkephalin [DPDPE] | – | – | – | – | – | – | 60% | 0.0005 µM |
